Residue numbers refer to the chain shown, from its start. Read-outs that look alike come from different tables or passages of the source.
Tests used:
N1L [1] = target: T1, N1L (Vaccinia virus, UniProt P17361); assay type: binding
T1 sequence (P17361 1-117): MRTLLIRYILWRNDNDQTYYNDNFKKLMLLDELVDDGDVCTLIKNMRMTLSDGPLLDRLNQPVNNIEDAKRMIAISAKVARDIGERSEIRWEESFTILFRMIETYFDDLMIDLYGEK

N1L [2] = target: T1, N1L; assay type: binding; remark: listed apart in the source
N1L I6K = target: T2, N1L I6K (Vaccinia virus, UniProt P17361, I6K); assay type: binding
T2 sequence (P17361 1-117 I6K): T1 sequence (P17361 1-117) with I6K

Bcl-2 = Bcl-2 (Homo sapiens, UniProt P10415); assay type: binding; settings: FPA, incomplete titration curves
Chain of Bcl-2 (P10415 whole entry): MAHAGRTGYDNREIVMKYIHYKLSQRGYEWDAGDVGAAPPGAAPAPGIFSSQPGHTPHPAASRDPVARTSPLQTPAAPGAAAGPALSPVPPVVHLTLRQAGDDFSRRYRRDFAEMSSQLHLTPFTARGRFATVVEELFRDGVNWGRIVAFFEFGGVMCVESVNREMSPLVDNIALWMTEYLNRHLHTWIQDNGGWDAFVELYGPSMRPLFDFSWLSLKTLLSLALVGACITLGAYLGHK

Bcl-XL = Bcl-XL (Homo sapiens, UniProt Q07817); assay type: binding; settings: FPA, incomplete titration curves
Chain of Bcl-XL (Q07817 whole entry): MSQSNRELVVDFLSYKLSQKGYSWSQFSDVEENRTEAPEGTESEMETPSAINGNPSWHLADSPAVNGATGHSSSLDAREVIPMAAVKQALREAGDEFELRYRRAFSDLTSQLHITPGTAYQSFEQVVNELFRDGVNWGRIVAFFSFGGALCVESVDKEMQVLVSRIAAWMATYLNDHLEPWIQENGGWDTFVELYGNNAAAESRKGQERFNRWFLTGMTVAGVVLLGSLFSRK

VacV-GFP = assay type: cell-based, vaccinia virus
[3] = compound concentrations above 100 μM

Row | Structure (SMILES) | non-specific cytotoxicity (in words) (CV1 and HT1080 cells; [3]) | ΔH of N1L unfolding (N1L [1]) | binding to Bcl-2 (in words) (Bcl-2) | binding to Bcl-XL (in words) (Bcl-XL) | also measured
1 | COc1ccc(C(C)c2cc(OC)c(OC)c(OC)c2)cc1 (centres unmarked) [Ligand 2] | no significant non-specific cytotoxicity | – | – | – | –
2 | COc1ccc(CCc2cc(OC)c(O)c(OC)c2)cc1 [Ligand 3] | – | 11.0 kcal/mol | – | – | –
3 | Oc1ccc(/C=C/c2cc(O)cc(O)c2)cc1 [Ligand 4, trans-Resveratrol] | – | 10.3 kcal/mol | – | – | N1L inhibition (in words) (N1L [2]): moderate N1L inhibitor; Tm of N1L I6K (N1L I6K): 61.1 °C; ΔH of N1L I6K unfolding (N1L I6K): 15.9 kcal/mol
4 | COc1cc(C(c2ccccc2)c2ccccc2)c2ccccc2c1O [Ligand 6] | – | 8.7 kcal/mol | – | – | –
5 | Oc1cc(C(c2ccccc2)c2ccccc2)c2ccccc2c1O [Ligand 7] | – | 12.3 kcal/mol | poor ligand binding | poor ligand binding | –
6 | COc1ccc2ccccc2c1-c1c(O)ccc2ccccc12 [Ligand 8] | – | – | cross-reactivity | cross-reactivity | antiviral activity (in words) (VacV-GFP): poor antiviral; non-specific cytotoxicity (in words) (CV1 and HT1080 cells; absence of VacV-GFP, up to 150 μM): cytotoxicity in uninfected cells
7 | Oc1ccc(/C=N/c2ccccc2/N=C/c2ccc(O)c(O)c2)cc1O [Ligand 9] | no significant non-specific cytotoxicity | 17.8 kcal/mol | – | – | –
8 | COc1cc(-c2ccc3cc(OC)c(OC)c(OC)c3c2)cc(OC)c1OC [Ligand 11] | no significant non-specific cytotoxicity | 20.3 kcal/mol | poor ligand binding | poor ligand binding | effect on N1L enthalpy of unfolding (in words) (N1L [1]): increase of enthalpy of unfolding; effect on N1L melting temperature (in words) (N1L [1]): slight decrease of melting temperature
9 | Oc1cc(Cc2ccccc2)c(Cc2ccccc2)cc1O [Ligand 12] | – | 11.2 kcal/mol | – | – | –

— article PMC2874095 (Journal of medicinal chemistry, 2010)
